Laboratory results taken from PubChem BioAssay (NCI).
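Assay format: 96-well plates, 48-hour exposure. TGI is the concentration that stops growth completely.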

What was measured:
Assay in all cases: growth of human tumour cells (NCI), 48 h
[1] = system: IGROV1 ovarian
[2] = system: T-47D breast
[3] = system: A498 renal
[4] = system: SW-620 colon
[5] = system: SN12C renal
[6] = system: HCT-15 colon
[7] = system: HL-60(TB) leukemia
[8] = system: TK-10 renal
[9] = system: COLO 205 colon
[10] = system: SF-539 CNS
[11] = system: CCRF-CEM leukemia
[12] = system: OVCAR-3 ovarian
[13] = system: UO-31 renal
[14] = system: UACC-62 melanoma
[15] = system: NCI-H23 lung
[16] = system: NCI-H522 lung
[17] = system: M14 melanoma
[18] = system: SK-MEL-2 melanoma
[19] = system: NCI-H226 lung
[20] = system: MDA-MB-435
[21] = system: SK-MEL-28 melanoma
[22] = system: HOP-92 NSCLC
[23] = system: ACHN renal
[24] = system: NCI-H460 lung
[25] = system: SR leukemia
[26] = system: MOLT-4 leukemia
[27] = system: PC-3 prostate
[28] = system: CAKI-1 renal
[29] = system: NCI/ADR-RES ovarian
[30] = system: U251 CNS
[31] = system: SF-268 CNS
[32] = system: MALME-3M melanoma
[33] = system: LOX IMVI melanoma
[34] = system: SNB-75 CNS
[35] = system: OVCAR-8 ovarian
[36] = system: DU-145 prostate
[37] = system: KM12 colon
[38] = system: HCC-2998 colon
[39] = system: OVCAR-4 ovarian
[40] = system: HCT-116 colon
[41] = system: OVCAR-5 ovarian
[42] = system: UACC-257 melanoma
[43] = system: HS 578T breast
[44] = system: 786-0 renal
[45] = system: K-562 leukemia
[46] = system: EKVX NSCLC
[47] = system: MDA-MB-231 breast
[48] = system: MCF7 breast
[49] = system: SF-295 CNS
[50] = system: BT-549 breast
[51] = system: SNB-19 CNS
[52] = system: SK-MEL-5 melanoma
[53] = system: A549 NSCLC
[54] = system: HOP-62 NSCLC
[55] = system: RXF 393 renal
[56] = system: HT29 colon
[57] = system: SK-OV-3 ovarian
[58] = system: RPMI-8226 leukemia

In the case of `COc1ccc(P2(=S)OCCOP(=S)(c3ccc(OC)cc3)S2)cc1` (stereo not drawn), the TGI [1] is reported as > 100 µM, the TGI [2] is reported as > 100 µM and the TGI [3] is reported as 7.05 µM. For the same compound, the TGI [4] was > 100 µM, the TGI [5] was 33.9 µM and the TGI [6] was > 100 µM. The TGI [7] was > 23.3 µM, the TGI [8] was > 100 µM and the TGI [9] was 55.8 µM. For the same compound, the TGI [10] was 6.7 µM, the TGI [11] was 25.1 µM and the TGI [12] was 6.11 µM. The TGI [13] was > 50.7 µM, the TGI [14] was > 100 µM and the TGI [15] was > 100 µM. The TGI [16] was 6.11 µM, the TGI [17] was > 100 µM and the TGI [18] was > 100 µM. The TGI [19] was > 100 µM, the TGI [20] was 40.7 µM and the TGI [21] was > 100 µM. For the same compound, the TGI [22] was > 100 µM, the TGI [23] was > 100 µM and the TGI [24] was > 32.2 µM. For the same compound, the TGI [25] was > 100 µM, the TGI [26] was > 39.5 µM and the TGI [27] was 5.48 µM. For the same compound, the TGI [28] was > 100 µM, the TGI [29] was > 100 µM and the TGI [30] was > 100 µM. For the same compound, the TGI [31] was > 100 µM, the TGI [32] was > 100 µM and the TGI [33] was 42.6 µM. The TGI [34] was > 100 µM, the TGI [35] was > 61.6 µM and the TGI [36] was > 100 µM. For the same compound, the TGI [37] was > 100 µM, the TGI [38] was 7.5 µM and the TGI [39] was > 100 µM. For the same compound, the TGI [40] was > 100 µM, the TGI [41] was > 100 µM and the TGI [42] was > 79.8 µM. The TGI [43] was > 100 µM, the TGI [44] was > 42 µM and the TGI [45] was > 100 µM. For the same compound, the TGI [46] was > 100 µM, the TGI [47] was > 100 µM and the TGI [48] was 19.4 µM. The TGI [49] was > 27.6 µM, the TGI [50] was > 79.9 µM and the TGI [51] was > 100 µM. The TGI [52] was > 41.9 µM, the TGI [53] was > 100 µM and the TGI [54] was > 100 µM.

With `CNc1ccccc1S(=O)(=O)c1ccccc1[N+](=O)[O-]` the TGI [1] was > 100 µM, the TGI [2] was > 100 µM and the TGI [3] was > 100 µM. The TGI [4] was > 100 µM, the TGI [5] was > 100 µM and the TGI [6] was > 100 µM. For the same compound, the TGI [7] was > 100 µM, the TGI [55] was > 100 µM and the TGI [8] was > 100 µM. For the same compound, the TGI [9] was > 100 µM, the TGI [56] was > 100 µM and the TGI [10] was > 100 µM. The TGI [11] was > 100 µM, the TGI [12] was > 100 µM and the TGI [13] was > 100 µM. For the same compound, the TGI [14] was > 100 µM, the TGI [15] was > 100 µM and the TGI [16] was > 100 µM. For the same compound, the TGI [17] was > 100 µM, the TGI [18] was > 100 µM and the TGI [19] was > 100 µM. For the same compound, the TGI [20] was > 100 µM, the TGI [21] was > 100 µM and the TGI [23] was > 100 µM. The TGI [24] was > 100 µM, the TGI [25] was > 100 µM and the TGI [26] was > 100 µM. For the same compound, the TGI [27] was > 100 µM, the TGI [29] was > 100 µM and the TGI [30] was > 100 µM. The TGI [31] was > 100 µM, the TGI [32] was > 100 µM and the TGI [33] was > 100 µM. For the same compound, the TGI [34] was > 100 µM, the TGI [36] was > 100 µM and the TGI [37] was > 100 µM. The TGI [38] was > 100 µM, the TGI [57] was > 100 µM and the TGI [39] was > 100 µM. The TGI [40] was > 100 µM, the TGI [41] was > 100 µM and the TGI [43] was > 100 µM. The TGI [44] was > 100 µM, the TGI [45] was > 100 µM and the TGI [46] was > 100 µM. For the same compound, the TGI [47] was > 100 µM, the TGI [48] was > 100 µM and the TGI [49] was > 100 µM. The TGI [50] was 65.3 µM, the TGI [51] was > 100 µM and the TGI [52] was > 100 µM. For the same compound, the TGI [53] was > 100 µM, the TGI [58] was > 100 µM and the TGI [54] was > 100 µM.
